Key:
[1] = biological target: T1, synthetic protease [amino acid residues 69-167 of the pol open reading frame] (Human immunodeficiency virus type 1 group M subtype B, UniProt P03366); assay: Assay for inhibition of synthetic viral protease with peptide substrate Val-Ser-Gln-Asn-Tyr-Pro-Ile-Val (HPLC); type: biochemical, HIV; conditions: pH 5.5, 30°C, 1 hr
T1 construct: amino acid residues 69-167 of the pol open reading frame in Ratner, L. et al, Nature, 313, 277 (1985); made in house; host or cells: chemical synthesis (Merrifield solid-phase), no expression host
Description: Inhibition studies of the reaction of the synthetic protease [amino acid residues 69-167 of the pol open reading frame in Ratner, L. et al, Nature, 313, 277 (1985) and synthesized by Merrifield solid-phase synthesis] with a peptide substrate [Val-Ser-Gln-Asn-Tyr-Pro-Ile-Val, 2 mg/mL when the reaction is initiated] were in 50 mM Na acetate, pH 5.5, at 30°C for 1 hr. Various concentrations of inhibitor in 1.0 µl DMSO were added to 36 µl of assay solution and the reaction initiated by the addition of 4 ul (1.6 µg) of synthetic protease. The reaction was quenched with 160 ul of 12% acetic acid. Products of the reaction were separated by HPLC (VYDAC wide pore 5 cm C-18 reverse phase, acetonitrile gradient, 0.1% trifluoroacetic acid). The extent of inhibition of the reaction was determined from the peak heights of the products. HPLC of the products, independently synthesized, provided quantitation standards and confirmation of the product composition.

synthetic viral protease = biological target: T2, synthetic viral protease (Human immunodeficiency virus type 1 group M subtype B, UniProt P03366); assay: Inhibition of beta-casein hydrolysis by synthetic viral protease (14C-beta-casein, TCA soluble counts); type: biochemical, HIV; conditions: 14C-beta-casein substrate, 4 hours
T2 construct: amino acid residues 69-167 of the pol open reading frame in Ratner, L. et al, Nature, 313, 277 (1985); made in house; host or cells: chemical synthesis (Merrifield solid-phase), no expression host
Description: Inhibition of the synthetic viral protease reaction, of Example 2, with ¹⁴C - beta-casein as substrate in lieu of peptide substrates, was performed. Beta-casein (Sigma) was dialysed overnight at 4°C in 40 mM KPO₄, pH 7.0. Four microliters of the substrate (0.31 mg/ml) are used in each 40 µl reaction. After reaction with the protease for 4 hours, 10 µl of 10% bovine serum albumin and 500 µl of 10% trichloroacetic acid are added, the sample placed on ice for 30 min and centrifuged for 10 min at 15,000 g. From the supernatant a 300 µl aliquot is withdrawn and diluted into 7 ml liquid scintillation cocktail. Typical background level of TCA soluble counts (no enzyme added) is 200 and no inhibitor samples give a net signal of 1000 cpm.

[2] = Inh. Conc. 0.01 µM, listed as Cmpd A
[3] = Inh. Conc. 0.1 µM, listed as Cmpd A
[4] = Inh. Conc. 1 µM, listed as Cmpd A
[5] = Inh. Conc. 0.01 µM, listed as Cmpd B
[6] = Inh. Conc. 0.1 µM, listed as Cmpd B
[7] = Inh. Conc. 1 µM, listed as Cmpd B

Row | SMILES | PERCENT INHIBITION [1, 2] [%] | PERCENT INHIBITION [1, 3] [%] | PERCENT INHIBITION [1, 4] [%] | PERCENT INHIBITION ([1]; Inh. Conc. 100 µM) [%] | PERCENT INHIBITION (synthetic viral protease; [2]) [%] | PERCENT INHIBITION (synthetic viral protease; [3]) [%] | PERCENT INHIBITION (synthetic viral protease; [4]) [%] | PERCENT INHIBITION (synthetic viral protease; Inh. Conc. 10 µM, listed as Cmpd A) [%] | PERCENT INHIBITION (synthetic viral protease; Inh. Conc. 100 µM, listed as Cmpd A) [%] | PERCENT INHIBITION ([1]; Inh. Conc. 0.001 µM) [%] | PERCENT INHIBITION [1, 5] [%] | PERCENT INHIBITION [1, 6] [%] | PERCENT INHIBITION [1, 7] [%] | PERCENT INHIBITION ([1]; Inh. Conc. 10 µM) [%] | PERCENT INHIBITION (synthetic viral protease; Inh. Conc. 0.001 µM) [%] | PERCENT INHIBITION (synthetic viral protease; [5]) [%] | PERCENT INHIBITION (synthetic viral protease; [6]) [%] | PERCENT INHIBITION (synthetic viral protease; [7]) [%] | PERCENT INHIBITION (synthetic viral protease; Inh. Conc. 10 µM, listed as Cmpd B) [%] | PERCENT INHIBITION (synthetic viral protease; Inh. Conc. 100 µM, listed as Cmpd B) [%]
1 | CC(C)C[C@H](NC(=O)C(Cc1ccccc1)C[C@H](O)[C@H](Cc1ccccc1)NC(=O)[C@H](Cc1ccccc1)NC(=O)[C@H](Cc1ccccc1)NC(=O)OC(C)(C)C)C(=O)N[C@@H](Cc1ccccc1)C(N)=O (single isomer, unassigned) [A, N′-(1,1-Dimethylethoxycarbonyl)-Phe-Phe-5(S)-Amino-4(S)-Hydroxy-6-Phenyl-2(R or S)-(Phenylmethyl)Hexanoyl-Leu-Phe-Amide] | 0 | 20 | 40 | 100 | 0 | 14 | 82 | 65 | 97 | – | – | – | – | – | – | – | – | – | – | –
2 | CC(C)C[C@H](NC(=O)C(Cc1ccccc1)C[C@H](O)[C@H](Cc1ccccc1)NC(=O)[C@H](Cc1ccccc1)NC(=O)[C@H](Cc1ccccc1)NC(=O)OC(C)(C)C)C(=O)N[C@@H](Cc1ccccc1)C(N)=O (single isomer, unassigned) [Compound B, N′-(1,1-Dimethylethoxycarbonyl)-Phe-Phe-5(S)-Amino-4(S)-Hydroxy-6-Phenyl-2(S or R)-(Phenylmethyl)Hexanoyl-Leu-Phe-Amide] | – | – | – | 100 | – | – | – | – | – | 20 | 60 | 100 | 100 | 100 | 20 | 67 | 97 | 95 | 91 | 60

Source: patent EP0357332A2, “Renin inhibitors useful for the treatment of aids by inhibition of HIV protease” (MERCK & CO. INC., priority 1988, dated 1990)
